Results taken from US7671052B2 (priority 2004, dated 2010).
Like-named read-outs stand apart in the source and are kept apart here.

Key:
hCB1 [1] = molecular target: T1, hCB1 (Homo sapiens, UniProt P21554); assay: Inhibition of [3H]CP55940 binding to hCB1 receptor membranes; settings: human cloned CB1 receptor
T1 construct: expressed in transfected cells; host or cells: CHO-K1 (Chinese hamster ovary), stably transfected; membrane preparation
Protocol: (§1) Chinese hamster ovary cells (CHO-K1), stably transfected with either hCB1 or hCB2, were washed two times with cold PBS, scraped from 500 cm^2 tissue culture plates, and pelleted by centrifugation at 1000×g for 10 min. The supernatant was discarded and the pellet was re-suspended in Tris assay buffer (50 mM Tris HCl, pH 7.8, containing 1.0 mM EGTA, 5.0 mM MgCl2, 10 μg/mL leupeptin, 10 μg/mL pepstatin A, 200 μg/mL bacitracin, and 0.5 μg/mL aprotinin), homogenized with a Polytron homogenizer (Brinkmann) at a setting of 1 for 20 sec and centrifuged at 38,000×g for 20 min at 4° C. The pellet was re-suspended in Tris assay buffer and aliquots of 1 mg protein/mL were stored at −80° C. for further use.
Binding assays were performed by incubating 0.2-0.6 nM (34,000-100,000 dpm) of [^3H]CP55940 with membranes prepared from cells expressing cloned human CB1 or CB2 receptors in buffer A (50 mM Tris HCl, pH 7.0, 5.0 mM MgCl2, 1.0 mM EGTA and 1.0 mg/mL fatty acid free bovine serum albumin). […] The filters were rinsed 6 times with one mL of cold wash buffer (50 mM Tris HCl, pH 7.0, 5.0 mM MgCl2, 1.0 mM EGTA and 0.75 mg/mL fatty acid free bovine serum albumin), 30 μL of MicroScint 20 was added to each filter and the radioactivity on the filters determined by scintillation spectroscopy. Nonspecific binding was determined in the presence of 10 μM WIN55212-2. […]

hCB2 [2] = molecular target: T2, hCB2 (Homo sapiens, UniProt P34972); assay: Inhibition of [3H]CP55940 binding to hCB2 receptor membranes
T2 construct: expressed in transfected cells; host or cells: CHO-K1 (Chinese hamster ovary), stably transfected; membrane preparation
T2 sequence (P34972 whole entry): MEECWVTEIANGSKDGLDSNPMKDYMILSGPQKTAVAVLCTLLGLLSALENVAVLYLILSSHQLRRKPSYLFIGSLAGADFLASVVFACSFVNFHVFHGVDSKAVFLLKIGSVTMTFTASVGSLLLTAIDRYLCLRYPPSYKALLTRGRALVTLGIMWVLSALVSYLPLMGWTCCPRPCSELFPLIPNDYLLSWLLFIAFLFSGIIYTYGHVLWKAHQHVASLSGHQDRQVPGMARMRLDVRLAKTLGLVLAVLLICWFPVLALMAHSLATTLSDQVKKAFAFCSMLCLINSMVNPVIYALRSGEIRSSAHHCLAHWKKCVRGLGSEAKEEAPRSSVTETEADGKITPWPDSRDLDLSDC

hCB1 [3] = molecular target: T1, hCB1; assay: hCB1-mediated stimulation of [35S]GTPγS binding; format: biochemical; settings: read-out: in vitro CB1 receptor agonist potency (EC50)
Protocol: as §1
hCB1-mediated stimulation of [^35S]GTPγS binding was measured in a mixture containing 100-150 pM [^35S]GTPγS, 150 mM NaCl, […], 0.4 mM DTT, 1 mM EGTA, 1 mg/mL fatty acid free BSA, 25 μg of membrane protein and agonist in a total volume of 250 μL of buffer A in 96 well Basic Flashplates (Perkin Elmer). After incubation at room temperature for 2 hours the plates were centrifuged at 800×g at 4° C. for 5 min and the radioactivity bound to the membranes was determined by scintillation spectrometry using the Topcount (Perkin Elmer). […]

hCB2 [4] = molecular target: T2, hCB2; assay: hCB2-mediated stimulation of [35S]GTPγS binding; format: biochemical; settings: read-out: in vitro CB2 receptor agonist potency (EC50)
Protocol: hCB2-mediated [^35S]GTPγS binding was measured in the same way except the assay mixture contained 10 mM GDP and the incubation time was 6 hours. […] After incubation at 30° C. for 2 hours, the plates were centrifuged at 800×g at 4° C. for 5 min and the radioactivity bound to the membrane was determined by scintillation spectrometry using the Topcount (Perkin Elmer).
EC50 values in functional assays were also derived from automated nonlinear regression analysis of sigmoidal titration curves using the three-parameter modification of the four-parameter equation.

Male Sprague-Dawley rats = assay: Neuropathic pain assay: L5 spinal nerve ligation, tactile sensitivity (von Frey); format: in vivo, rat; settings: L5 SNL rats
Protocol: Male Sprague-Dawley rats (120-250 g, Harlan Laboratories, Columbus, Ohio) were housed in pairs and allowed free access to food and water throughout the study. Room temperature and humidity were maintained at 21° C. and 70%, respectively. Nerve injury was produced with tight ligation of the left L5 spinal nerve (Kim and Chung, 1992; LaBuda and Fuchs, 2000a, 2000b, LaBuda, Donahue and Fuchs, 2001). Briefly, animals were placed in the prone position to access the left L4-L6 spinal nerves. Under magnification, approximately one third of the L6 transverse process was removed. The L5 spinal nerve was identified and carefully dissected free from the adjacent L4 spinal nerve and then tightly ligated using 6-0 silk suture. The wound was treated with an antiseptic solution, the muscle layer was sutured, and the wound was closed with wound clips. Sham-operated surgical controls were prepared in the same manner, but the L5 spinal nerve was not […]. All housing conditions and experimental procedures were performed in accordance with the ethical guidelines of the IASP and the Adolor Corporation Animal Care and Use Committee.
Seven to ten animals per group were used for all behavioral assays. After a 7-10 day post-surgical recovery, animals were tested for baseline sensitivity to tactile stimulation of both hindpaws. Allodynic animals were defined as animals having a threshold of less than 7.5 grams of pressure applied to the injured hindpaw. Tactile sensitivity was evaluated using von Frey monofilaments before and after treatment. […] Thirty minutes after treatment, tactile sensitivity was evaluated. Five to seven days later, animals were tested using a different compound. Each animal was tested three times with different compounds. All behavioral testing was performed between 9:00 AM and 5:00 PM in a well-illuminated room with white background noise.
Animals were placed in a Plexiglas chamber (20 cm×10.5 cm×40.5 cm) and habituated for 15 minutes. The chamber was positioned on top of a mesh screen so that von Frey monofilaments could be presented to the plantar surfaces of both hindpaws. Measurements of tactile sensitivity for each hindpaw were obtained using the up/down method (Dixon, 1980) with seven von Frey monofilaments (0.04, 0.07, 0.16, 0.4, 1, 6, and 15 grams). Each trial started with a von Frey force of 0.4 g delivered to the right hindpaw and then the left hindpaw for approximately 1-2 sec each. If there was no withdrawal response, the next higher force was delivered. If there was a response, the next lower force was delivered. This procedure was performed until no response was made at the highest force (15 grams) or until four stimuli were administered following the initial response. The 50% paw withdrawal threshold for each paw was calculated using the following formula: [Xth]log=[vFr]log+ky where [vFr] is the force of the last von Frey filament used, k=0.2249 which is the average interval (in log units) between the von Frey monofilaments, and y is a value that depends upon the pattern of withdrawal responses (Dixon, 1980). […] Testing for tactile sensitivity was performed twice and the mean 50% withdrawal value assigned as the tactile sensitivity for the right and left paws for each animal.
Tactile sensitivity for both hindpaws before and after treatments were analyzed using one-way analysis of variance (ANOVA) followed by post-hoc comparisons (protected t-test) for group differences. An alpha level of 0.05 was used for all analyses.

Male ICR mice = assay: Catalepsy ring test; format: in vivo, mouse; settings: for % catalepsy @ 30 mg/kg: 30 mg/kg i.p.; for % catalepsy @ 30 mg/kg / % catalepsy @ 100 mg/kg: 60 or 90 minutes after dosing; for % catalepsy @ 100 mg/kg: 100 mg/kg i.p.
Protocol: The apparatus consisted of a 5.5 centimeter ring attached to a ring stand at a height of 16 centimeters. Male ICR mice (20-25 g) were placed on the ring 60 or 90 minutes after dosing (i.p.) with test compounds or vehicle. Normal behavior for a mouse would be to walk around and investigate the ring. Catalepsy was shown when the mouse remained motionless. The amount of time (in seconds, in a 5 minute test session) the mouse spent motionless was determined.
Mice that fell or jumped were allowed 5 “escapes”. If 5 “escapes” happened before 2.5 minutes into the test, the data were disregarded. The immobility index (% catalepsy) was determined by the amount of time spent immobile divided by the length of the test (P. Little et al. Pharmac. Biochem. & Behavior 1989, 32, 661-666). Since the CB1 receptor is thought to be responsible for psychoactivity, the catalepsy ring test is an excellent in vivo screen for CB1 activity.

[5] = Table 3, 10 mg/kg, n = 7-8/group
[6] = Table 3, 2.5 mg/kg i.p., n = 7-8/group

T1 sequence (P21554 whole entry): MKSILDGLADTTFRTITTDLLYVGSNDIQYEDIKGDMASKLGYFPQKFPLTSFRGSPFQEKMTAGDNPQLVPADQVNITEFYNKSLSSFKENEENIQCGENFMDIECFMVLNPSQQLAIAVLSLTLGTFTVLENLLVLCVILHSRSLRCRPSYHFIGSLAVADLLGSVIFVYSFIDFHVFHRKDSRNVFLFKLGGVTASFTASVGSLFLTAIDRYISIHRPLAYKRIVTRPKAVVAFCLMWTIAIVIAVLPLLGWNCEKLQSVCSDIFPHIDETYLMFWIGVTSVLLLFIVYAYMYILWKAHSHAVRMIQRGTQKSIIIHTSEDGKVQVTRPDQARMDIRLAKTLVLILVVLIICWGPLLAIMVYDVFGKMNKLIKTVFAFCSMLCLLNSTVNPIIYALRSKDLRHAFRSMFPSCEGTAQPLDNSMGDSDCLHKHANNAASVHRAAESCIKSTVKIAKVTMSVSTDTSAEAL

CCCCOCC(C)(C)c1ccc(-c2cccc(CNC(=O)NCCC)c2)c(O)c1 [Compound 15, 1-[4′-(2-Butoxy-1,1-dimethyl-ethyl)-2′-hydroxy-biphenyl-3-ylmethyl]-3-propyl-urea]
Ki (hCB1 [1]): 1.1 nM
Ki (hCB2 [2]): 0.4 nM
EC50 (hCB1 [3]): 29.1 nM
EC50 (hCB2 [4]): 5.1 nM

CCNC(=O)NCc1cccc(-c2ccc(C(C)(C)CCCNC(=O)C(C)(C)C)cc2O)c1 [Compound 35, N-(4-{3′-[(3-Ethyl-ureido)-methyl]-2-hydroxy-biphenyl-4-yl}-4-methyl-pentyl)-2,2-dimethyl-propionamide]
Threshold (Male Sprague-Dawley rats; [5]): 10.96 ± 2.66 g

CC(C)(CCCCC(=O)N1CCOCC1)c1ccc(-c2cccc(CNS(C)(=O)=O)c2)c(O)c1 [Compound 71]
% catalepsy @ 30 mg/kg (Male ICR mice): 3.38 ± 2.75%
% catalepsy @ 100 mg/kg (Male ICR mice): 24.65 ± 3.36%

CC(C)(CCCCC(=O)N1CCOCC1)c1ccc(-c2cccc(CNC(=O)C3CCCO3)c2)c(O)c1 (centres unmarked) [Compound 41, Tetrahydrofuran-2-carboxylic acid [4′-(1,1-dimethyl-6-morpholin-4-yl-6-oxo-hexyl)-2′-hydroxy-biphenyl-3-ylmethyl]-amide]
% catalepsy @ 30 mg/kg (Male ICR mice): 13.07 ± 2.85%
% catalepsy @ 100 mg/kg (Male ICR mice): 58.78 ± 7.95%

CCNC(=O)NCc1cccc(-c2ccc(C(C)(C)CCCCC(=O)N3CCOCC3)cc2O)c1 [Compound 20, 1-[4′-(1,1-Dimethyl-6-morpholin-4-yl-6-oxo-hexyl)-2′-hydroxy-biphenyl-3-yl-methyl]-3-ethyl-urea]
% catalepsy @ 30 mg/kg (Male ICR mice): 3.07 ± 1.15%
% catalepsy @ 100 mg/kg (Male ICR mice): 5.05 ± 1.81%
Threshold (Male Sprague-Dawley rats; Table 2, 10 mg/kg i.p., n = 8): 12.16 ± 2.41 g
Threshold (Male Sprague-Dawley rats; Table 2, 30 mg/kg i.p., n = 8): 12.02 ± 2.54 g
Threshold (Male Sprague-Dawley rats; Table 3, 3 mg/kg, n = 7-8/group): 9.14 ± 3.36 g
Threshold (Male Sprague-Dawley rats; [5]): 16.69 ± 1.19 g

CCNC(=O)NCc1cccc(-c2ccc(C(C)(C)COCCOC)cc2O)c1 [Compound 17, 1-Ethyl-3-{2′-hydroxy-4′-[2-(2-methoxy-ethoxy)-1,1-dimethyl-ethyl]-biphenyl-3-ylmethyl}-urea]
% catalepsy @ 30 mg/kg (Male ICR mice): 12.21 ± 2.79%
% catalepsy @ 100 mg/kg (Male ICR mice): 47.93 ± 5.98%

CCCCOCC(C)(C)c1ccc(-c2ccccc2CNC(=O)NCC)c(O)c1 [Compound 12, 1-[4′-(2-Butoxy-1,1-dimethyl-ethyl)-2′-hydroxy-biphenyl-2-ylmethyl]-3-ethyl-urea]
Ki (hCB1 [1]): 1.6 nM
Ki (hCB2 [2]; human cloned CB2 receptor, read-out: Ki(CB2)): 0.56 nM
EC50 (hCB1 [3]): 15.5 nM
EC50 (hCB2 [4]): 15.2 nM

CCNC(=O)NCc1cccc(-c2ccc(C(C)(C)COCCC(=O)N3CCOCC3)cc2O)c1 [Compound 11, 1-{4′-[1,1-Dimethyl-2-(3-morpholin-4-yl-3-oxo-propoxy)-ethyl]-2′-hydroxy-biphenyl-3-yl-methyl}-3-ethyl-urea]
% catalepsy @ 30 mg/kg (Male ICR mice): 6.65 ± 1.87%
% catalepsy @ 100 mg/kg (Male ICR mice): 18.80 ± 3.33%

Cc1c(C(=O)c2cccc3ccccc23)c2cccc3c2n1[C@H](CN1CCOCC1)CO3 [WIN+, WIN55,212-2, reference compound]
% catalepsy (Male ICR mice; WIN @ 10 mg/kg i.p.): 51.64 ± 2.69%
Threshold (Male Sprague-Dawley rats; [6]): 15.03 ± 1.70 g

Cc1c(C(=O)c2cccc3ccccc23)c2cccc3c2n1[C@@H](CN1CCOCC1)CO3 [WIN−, WIN55,212-3, reference compound]
Threshold (Male Sprague-Dawley rats; [6]): 6.25 ± 1.19 g
